Test results as given in ChEMBL document CHEMBL5380830, “Development and Therapeutic Implications of Tyrosine Kinase 2 Inhibitors” (J Med Chem, 2023).
One block for each compound: values may come before it.

Key:
[1] = molecular target: JAK1/TYK2 (Homo sapiens, UniProt P23458+P29597); assay: Inhibition of JAK2/TYK2 in HEK293T cells co-expressing luciferase gene under control of ISRE assessed as reduction in IFNalpha expression incubated for 6 hrs by one-glo reagent based luciferase reporter gene assay; type: cell-based
[2] = molecular target: T1, Tyrosine-protein kinase JAK2 (Homo sapiens, UniProt O60674); assay: Inhibition of JAK2 in human TF-1 cells assessed as reduction of STAT5 phosphorylation by ELISA assay; type: cell-based
[3] = molecular target: T2, JAK2/TYK2 (Homo sapiens, UniProt O60674+P29597); assay: Inhibition of JAK2/TYK2 in HEK-Blue IL-23 cells assessed as reduction in SEAP reporter gene expression incubated for 21 hrs by Quanti-blue assay; type: cell-based
[4] = molecular target: T3, Non-receptor tyrosine-protein kinase TYK2 (Homo sapiens, UniProt P29597); assay: Binding affinity to His-tagged human recombinant TYK2 JH2 (556 to 871 residues) incubated for 10 hrs by microplate reader based analysis
[5] = molecular target: T2, JAK2/TYK2; assay: Inhibition of JAK2/TYK2 signal transduction pathway in human PBMC cells assessed as IL-12 induced p-STAT4 level by AlphaLISA assay; type: cell-based
[6] = molecular target: T2, JAK2/TYK2; assay: Inhibition of JAK2/TYK2 signal transduction pathway in human PBMC cells assessed as IL-23 induced p-STAT4 level by AlphaLISA assay; type: cell-based
[7] = Inhibition of IFN-gamma induced STAT phosphorylation in HEK293 cells by Western blotting analysis; type: cell-based; conditions: Homo sapiens
[8] = Inhibition of IL-2 induced STAT phosphorylation in HEK293 cells by Western blotting analysis; type: cell-based; conditions: Homo sapiens
[9] = Inhibition of IL-23 induced STAT phosphorylation in HEK293 cells by Western blotting analysis; type: cell-based; conditions: Homo sapiens
[10] = molecular target: Janus Kinase (JAK) (Homo sapiens, UniProt P52333+P23458+O60674+P29597); assay: Inhibition of JAK JH1 (unknown origin); type: protein assay
[11] = Inhibition of IFNalpha induced STAT phosphorylation in HEK293 cells by Western blotting analysis; type: cell-based; conditions: Homo sapiens
[12] = molecular target: T4, Tyrosine-protein kinase JAK1 (Homo sapiens, UniProt P23458); assay: Inhibition of JAK1 (unknown origin) using ULight - JAK (Tyr1023) substrate incubated for 60 mins in presence of ATP by envision plate reader based analysis
[13] = molecular target: T5, Tyrosine-protein kinase JAK3 (Homo sapiens, UniProt P52333); assay: Inhibition of JAK3 (unknown origin) using ULight - JAK (Tyr1023) substrate incubated for 60 mins in presence of ATP by envision plate reader based analysis
T5 sequence (P52333 whole entry): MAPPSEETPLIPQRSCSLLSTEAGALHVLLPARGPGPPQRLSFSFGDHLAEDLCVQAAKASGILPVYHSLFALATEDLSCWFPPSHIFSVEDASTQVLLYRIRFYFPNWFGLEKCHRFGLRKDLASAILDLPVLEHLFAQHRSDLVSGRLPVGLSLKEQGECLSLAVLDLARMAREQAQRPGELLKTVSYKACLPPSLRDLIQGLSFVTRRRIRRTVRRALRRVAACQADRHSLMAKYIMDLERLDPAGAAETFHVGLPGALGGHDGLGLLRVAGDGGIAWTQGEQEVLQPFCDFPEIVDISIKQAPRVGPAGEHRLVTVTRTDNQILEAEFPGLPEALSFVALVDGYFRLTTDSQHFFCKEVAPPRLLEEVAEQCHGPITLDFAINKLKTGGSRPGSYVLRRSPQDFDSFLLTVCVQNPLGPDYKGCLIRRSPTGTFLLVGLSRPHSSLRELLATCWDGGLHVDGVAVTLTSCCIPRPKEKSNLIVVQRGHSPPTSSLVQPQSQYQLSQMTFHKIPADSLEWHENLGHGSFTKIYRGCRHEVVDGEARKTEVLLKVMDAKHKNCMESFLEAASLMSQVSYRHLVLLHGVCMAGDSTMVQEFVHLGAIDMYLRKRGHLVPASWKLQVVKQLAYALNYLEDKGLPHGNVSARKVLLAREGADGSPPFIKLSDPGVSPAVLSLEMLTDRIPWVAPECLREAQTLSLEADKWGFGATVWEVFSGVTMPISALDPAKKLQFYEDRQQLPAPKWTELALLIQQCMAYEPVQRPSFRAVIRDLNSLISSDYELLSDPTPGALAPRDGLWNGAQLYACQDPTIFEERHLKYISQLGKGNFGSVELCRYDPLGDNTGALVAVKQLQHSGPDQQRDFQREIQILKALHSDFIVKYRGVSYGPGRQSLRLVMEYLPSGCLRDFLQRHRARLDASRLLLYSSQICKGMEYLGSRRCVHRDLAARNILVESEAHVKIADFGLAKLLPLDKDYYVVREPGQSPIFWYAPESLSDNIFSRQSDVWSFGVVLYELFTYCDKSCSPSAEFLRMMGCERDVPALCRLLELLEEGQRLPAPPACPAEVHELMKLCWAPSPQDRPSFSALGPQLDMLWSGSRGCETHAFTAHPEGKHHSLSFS

[14] = Cmax in C57BL/6 mouse at 10 mg/kg, po by LC/MS-MS analysis; type: ADME, organism-based; design: dose 10 mg/kg, route po; conditions: in vivo
[15] = molecular target: T1, Tyrosine-protein kinase JAK2; assay: Inhibition of JAK2 (unknown origin)
[16] = molecular target: T3, Non-receptor tyrosine-protein kinase TYK2; assay: Inhibition of TYK2 JH2 (unknown origin)
[17] = AUC in C57BL/6 mouse at 10 mg/kg, po by LC/MS-MS analysis; type: ADME, organism-based; design: dose 10 mg/kg, route po; conditions: in vivo
[18] = molecular target: T3, Non-receptor tyrosine-protein kinase TYK2; assay: Inhibition of TYK2 JH1 (unknown origin)
[19] = Cmax in ICR mouse at 30 mg/kg, IG by LC/MS/MS analysis; type: ADME, organism-based; design: dose 30 mg/kg, route ig; conditions: in vivo, po
[20] = Metabolic stability in human liver microsomes assessed as compound remaining after 60 mins; type: ADME, Microsome; conditions: read-out: Stability
[21] = Half life in ICR mouse at 30 mg/kg, IG by LC/MS/MS analysis; type: ADME, organism-based; conditions: in vivo, po
[22] = molecular target: T3, Non-receptor tyrosine-protein kinase TYK2; assay: Binding affinity to TYK2 JH2 (unknown origin)
[23] = molecular target: T5, Tyrosine-protein kinase JAK3; assay: Inhibition of JAK3 (unknown origin)
[24] = Oral bioavailability in C57BL/6 mouse at 10 mg/kg by LC/MS-MS analysis; type: ADME, organism-based; conditions: in vivo
[25] = Half life in C57BL/6 mouse at 10 mg/kg, po by LC/MS-MS analysis; type: ADME, organism-based; conditions: in vivo
[26] = molecular target: T4, Tyrosine-protein kinase JAK1; assay: Inhibition of JAK1 (unknown origin)
[27] = molecular target: T3, Non-receptor tyrosine-protein kinase TYK2; assay: Inhibition of TYK2 signal transduction pathway in human PBMC cells assessed as IFNalpha induced p-STAT5 level; type: cell-based
[28] = molecular target: T3, Non-receptor tyrosine-protein kinase TYK2; assay: Inhibition of TYK2 in HEK-Blue IL-23 cells assessed as reduction in SEAP reporter gene expression by Quanti-blue assay; type: cell-based
[29] = molecular target: T3, Non-receptor tyrosine-protein kinase TYK2; assay: Inhibition of TYK2 signal transduction pathway in human TF-1 cells assessed as reduction in GM-CSF induced p-STAT5 level; type: cell-based
[30] = molecular target: T2, JAK2/TYK2; assay: Inhibition of JAK2/TYK2 signal transduction pathway in human NK92 cells assessed as IL-12 induced STAT4 phosphorylation; type: cell-based
[31] = molecular target: T4, Tyrosine-protein kinase JAK1; assay: Inhibition of JAK1 JH2 (unknown origin)
[32] = molecular target: T3, Non-receptor tyrosine-protein kinase TYK2; assay: Inhibition of TYK2 JH2 (561 to 860 residues) (unknown origin) by HTRF assay

T3 sequence (P29597 whole entry, the tested form may be a part): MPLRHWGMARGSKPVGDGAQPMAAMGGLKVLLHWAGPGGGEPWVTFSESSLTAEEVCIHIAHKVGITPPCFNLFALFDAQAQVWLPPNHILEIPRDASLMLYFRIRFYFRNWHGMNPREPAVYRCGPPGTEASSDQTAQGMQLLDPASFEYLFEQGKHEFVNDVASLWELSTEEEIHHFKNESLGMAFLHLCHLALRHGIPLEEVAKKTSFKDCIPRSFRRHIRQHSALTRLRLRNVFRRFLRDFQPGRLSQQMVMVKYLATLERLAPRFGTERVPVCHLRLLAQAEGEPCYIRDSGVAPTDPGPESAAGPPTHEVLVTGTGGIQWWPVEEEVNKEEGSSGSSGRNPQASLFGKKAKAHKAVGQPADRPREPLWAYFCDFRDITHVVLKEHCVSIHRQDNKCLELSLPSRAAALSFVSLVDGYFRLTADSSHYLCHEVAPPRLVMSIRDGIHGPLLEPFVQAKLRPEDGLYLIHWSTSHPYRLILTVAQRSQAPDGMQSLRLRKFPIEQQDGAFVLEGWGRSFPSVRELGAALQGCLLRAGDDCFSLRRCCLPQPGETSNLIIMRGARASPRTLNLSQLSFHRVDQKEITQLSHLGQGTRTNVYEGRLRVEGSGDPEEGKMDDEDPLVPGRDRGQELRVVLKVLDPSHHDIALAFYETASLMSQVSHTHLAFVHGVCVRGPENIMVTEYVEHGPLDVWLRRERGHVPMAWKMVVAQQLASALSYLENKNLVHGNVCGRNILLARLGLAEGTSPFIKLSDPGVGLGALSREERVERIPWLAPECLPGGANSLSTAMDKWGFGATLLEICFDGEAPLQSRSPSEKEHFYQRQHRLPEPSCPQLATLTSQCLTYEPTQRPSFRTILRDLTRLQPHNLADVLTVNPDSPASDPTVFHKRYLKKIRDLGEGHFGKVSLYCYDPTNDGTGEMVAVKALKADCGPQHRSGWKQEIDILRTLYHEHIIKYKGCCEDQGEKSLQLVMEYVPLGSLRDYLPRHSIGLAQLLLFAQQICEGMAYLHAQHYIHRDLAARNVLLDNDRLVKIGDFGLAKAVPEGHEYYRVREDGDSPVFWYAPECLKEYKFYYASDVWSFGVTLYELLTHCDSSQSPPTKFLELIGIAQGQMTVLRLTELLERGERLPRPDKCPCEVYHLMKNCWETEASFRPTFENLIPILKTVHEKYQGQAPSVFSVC
T2 sequence (O60674 whole entry, the tested form may be a part): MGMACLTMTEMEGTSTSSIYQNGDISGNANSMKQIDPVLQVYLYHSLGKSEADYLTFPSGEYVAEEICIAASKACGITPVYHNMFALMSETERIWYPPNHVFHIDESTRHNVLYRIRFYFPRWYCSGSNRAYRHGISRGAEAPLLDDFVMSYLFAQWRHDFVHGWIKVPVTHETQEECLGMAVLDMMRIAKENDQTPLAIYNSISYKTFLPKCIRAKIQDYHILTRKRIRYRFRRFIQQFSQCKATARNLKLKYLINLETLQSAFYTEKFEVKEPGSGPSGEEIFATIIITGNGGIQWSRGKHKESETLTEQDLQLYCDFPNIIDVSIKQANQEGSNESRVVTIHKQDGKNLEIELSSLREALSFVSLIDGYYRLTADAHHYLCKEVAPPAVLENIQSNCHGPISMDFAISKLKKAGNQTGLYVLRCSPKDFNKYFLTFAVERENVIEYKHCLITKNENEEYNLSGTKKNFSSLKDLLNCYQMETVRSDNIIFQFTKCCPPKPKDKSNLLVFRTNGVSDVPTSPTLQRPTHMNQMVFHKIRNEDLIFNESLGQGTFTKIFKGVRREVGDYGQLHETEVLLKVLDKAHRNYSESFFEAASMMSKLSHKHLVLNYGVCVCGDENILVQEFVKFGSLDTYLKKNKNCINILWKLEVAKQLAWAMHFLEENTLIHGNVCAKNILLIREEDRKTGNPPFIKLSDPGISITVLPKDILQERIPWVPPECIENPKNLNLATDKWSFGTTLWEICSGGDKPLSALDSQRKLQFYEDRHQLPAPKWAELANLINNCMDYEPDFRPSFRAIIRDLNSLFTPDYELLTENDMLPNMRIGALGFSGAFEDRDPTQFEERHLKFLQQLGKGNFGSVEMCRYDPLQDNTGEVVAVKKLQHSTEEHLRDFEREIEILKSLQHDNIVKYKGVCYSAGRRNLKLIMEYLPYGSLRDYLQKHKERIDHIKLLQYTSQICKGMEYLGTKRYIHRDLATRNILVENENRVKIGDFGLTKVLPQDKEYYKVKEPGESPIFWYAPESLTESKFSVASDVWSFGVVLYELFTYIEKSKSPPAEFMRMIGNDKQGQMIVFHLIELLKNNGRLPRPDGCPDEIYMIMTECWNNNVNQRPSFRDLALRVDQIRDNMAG
T2 sequence (P29597 whole entry, the tested form may be a part): as the sequence (P29597 whole entry, the tested form may be a part) above
T1 sequence (O60674 whole entry): as the sequence (O60674 whole entry, the tested form may be a part) above
T4 sequence (P23458 whole entry): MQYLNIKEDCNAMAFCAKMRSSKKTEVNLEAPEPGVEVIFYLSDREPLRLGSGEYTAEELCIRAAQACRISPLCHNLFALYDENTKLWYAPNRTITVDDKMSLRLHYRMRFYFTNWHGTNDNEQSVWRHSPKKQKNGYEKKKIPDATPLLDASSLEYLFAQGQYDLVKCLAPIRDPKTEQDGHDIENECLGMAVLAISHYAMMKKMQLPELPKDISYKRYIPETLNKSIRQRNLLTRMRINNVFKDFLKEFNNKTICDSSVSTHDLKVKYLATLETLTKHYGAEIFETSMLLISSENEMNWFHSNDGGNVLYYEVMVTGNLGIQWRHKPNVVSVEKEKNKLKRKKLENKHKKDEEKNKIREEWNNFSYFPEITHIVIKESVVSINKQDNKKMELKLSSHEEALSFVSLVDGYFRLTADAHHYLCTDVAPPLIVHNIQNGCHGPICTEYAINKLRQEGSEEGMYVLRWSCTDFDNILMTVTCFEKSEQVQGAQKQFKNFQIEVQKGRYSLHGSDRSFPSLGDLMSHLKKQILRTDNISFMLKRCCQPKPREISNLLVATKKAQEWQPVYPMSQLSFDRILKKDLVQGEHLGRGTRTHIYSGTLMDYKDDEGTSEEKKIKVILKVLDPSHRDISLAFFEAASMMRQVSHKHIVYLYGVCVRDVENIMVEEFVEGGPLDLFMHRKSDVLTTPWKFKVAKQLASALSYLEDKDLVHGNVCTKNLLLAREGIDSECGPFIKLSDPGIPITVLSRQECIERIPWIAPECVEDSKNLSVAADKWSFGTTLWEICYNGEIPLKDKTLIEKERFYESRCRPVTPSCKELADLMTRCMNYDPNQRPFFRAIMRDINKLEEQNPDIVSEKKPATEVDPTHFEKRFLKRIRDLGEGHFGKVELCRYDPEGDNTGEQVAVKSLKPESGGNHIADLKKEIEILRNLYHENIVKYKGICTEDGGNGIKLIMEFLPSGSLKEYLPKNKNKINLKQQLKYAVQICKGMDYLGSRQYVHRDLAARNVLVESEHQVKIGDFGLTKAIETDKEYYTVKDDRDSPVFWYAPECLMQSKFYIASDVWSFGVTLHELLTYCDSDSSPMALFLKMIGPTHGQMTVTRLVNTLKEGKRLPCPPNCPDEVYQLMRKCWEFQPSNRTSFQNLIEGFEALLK
JAK1/TYK2, sequence (P23458 whole entry): as above
JAK1/TYK2, sequence (P29597 whole entry): as the sequence (P29597 whole entry, the tested form may be a part) above

EC50 [1]: < 10 nM | EC50 [2]: > 10000 nM | EC50 [3]: < 1 nM
SMILES: [2H]C([2H])([2H])Nc1cc(Nc2cc(Cl)cn(-c3ccccn3)c2=O)nn2c(C(=O)N[C@@H]3C[C@@H]3F)cnc12

Ki [4]: 2 nM | IC50 [5]: 8 nM | IC50 [6]: 2 nM
SMILES: CO[C@@]1(c2cc(C)cc(-c3cc(C)n4cnc(NC(N)=O)cc34)n2)CCOC1

IC50 [7]: > 90000 nM | IC50 [8]: > 90000 nM | IC50 [9]: < 10000 nM | IC50 [10]: > 90000 nM | IC50 [11]: < 10000 nM
SMILES: N#Cc1ccc(-n2[nH]c(=O)c3cnc(Nc4ccc(F)cn4)cc32)cc1Cl

Ki [4]: 2 nM | IC50 [5]: 9 nM | IC50 [6]: 3 nM
SMILES: CO[C@@]1(c2cc(C)cc(-n3nc(-c4cnn(C)c4)c4cnc(NC(N)=O)cc43)n2)CCOC1

IC50 [12]: > 5000 nM | IC50 [13]: > 5000 nM
SMILES: Cn1cc(-c2cn3ncnc3c(-c3ccn([C@]4(CC#N)C[C@@H](C#N)C4)c3)n2)cn1

Cmax [14]: 2060 ng/mL | IC50 [15]: > 10000 nM | IC50 [16]: 0.6 nM | AUC [17]: 10900 ng·h/mL | IC50 [18]: > 10000 nM
SMILES: CO[C@@]1(c2cc(C)cc(-n3cc(C4CC4)c4cnc(NC(C)=O)cc43)n2)CCOC1

Cmax [19]: 12500 ng/mL | remaining at 1 h [20]: 100% | half-life [21]: 6.26 h
SMILES: [2H]C([2H])([2H])NC(=O)c1nnc(NC(=O)C2CC2)cc1Nc1cccc(-c2ncc(-c3cccnc3C(F)(F)F)cn2)c1OC

Kd [22]: < 1 nM | IC50 [23]: > 10000 nM | IC50 [15]: > 10000 nM | bioavailability [24]: 147% | half-life [25]: 3.01 h | IC50 [26]: > 10000 nM | IC50 [18]: > 10000 nM | IC50 [27]: ≤ 50 nM
SMILES: [2H]C([2H])([2H])NC(=O)c1nnc2cc1Nc1cc(cc(-c3ccn(C)n3)c1OC)CCOCc1cccc(n1)N2

Cmax [14]: 2740 ng/mL | IC50 [23]: > 10000 nM | IC50 [15]: > 10000 nM | IC50 [16]: 2.1 nM | AUC [17]: 16600 ng·h/mL | IC50 [26]: > 10000 nM | IC50 [18]: > 10000 nM
SMILES: CO[C@@]1(c2cc(C)cc(-n3cc(C4CCN(C)CC4)c4cnc(NC(N)=O)cc43)n2)CCOC1

IC50 [28]: < 1 nM
SMILES: [2H]C([2H])([2H])NC(=O)c1nnc(NC(=O)[C@H]2CC23CC3)cc1Nc1ncc(OCCOC)cc1S(C)(=O)=O

Kd [22]: < 1 nM | IC50 [23]: > 10000 nM | IC50 [15]: > 10000 nM | bioavailability [24]: 148% | half-life [25]: 2.26 h | IC50 [26]: > 10000 nM | IC50 [18]: > 10000 nM | IC50 [27]: ≤ 50 nM
SMILES: CNC(=O)c1cnc2cc1Nc1cc(cc(-c3ccn(C)n3)c1OC)CCOCc1nc(ccc1C)N2

SMILES: COCCOc1cc(Nc2cc(NC(C)=O)ncc2-c2ccccn2)nc(S(C)(=O)=O)c1
IC50 [29]: > 10000 nM | IC50 [30]: 1.21 nM | IC50 [31]: 1.2 nM | IC50 [32]: 0.018 nM

IC50 [7]: > 90000 nM | IC50 [8]: > 90000 nM | IC50 [9]: < 10000 nM | IC50 [10]: > 90000 nM | IC50 [11]: < 10000 nM
SMILES: COc1cccc(-n2[nH]c(=O)c3cnc(Nc4cc(C)nc(C)n4)cc32)c1F
